From patent publication US20250034202A1 (The General Hospital Corporation, priority 2021, published 2025)
“And” between values parts separate entries of the source, which are not always exact repeats. Equal entries are not always repeated. Where two headings read alike, the source gives them in different places.

Assays:
MDA-BR = assay: Cell viability, breast cancer cells MDA-BR; assay type: cell-based
U87 = assay: Cell viability, adult glioma U87; assay type: cell-based
Keap1 Kelch domain = Keap1 Kelch domain (Homo sapiens, UniProt Q14145); assay: TR-FRET assay with full-length Keap1, Kelch domain; assay type: binding
Experimental: (§1) FIG. 5 contains a table showing apparent equilibrium dissociation constants for CS and CS-JQ1 toward Keap1-Kelch and Keap1-BTB domains.
(§2) Chemical synthesis: FITC-Ahx-[…]-CONH2 (FITC-KL9) peptide tracer was custom synthesized by Genscript (Piscataway, New Jersey). CDDO-FITC fluorescent tracer was prepared as previously described. Column purifications were performed on a Biotage Isolera 4 Purification System equipped with a 200-400 nm diode array detector. For normal phase flash purifications, Sorbtech Purity Flash Cartridges were used (CFC-52300-012-18 and CFC-52500-025-12). For reverse phase flash purifications, Biotage Sfar Bio C18 Duo 300 A, 20 μm cartridges were used (FSBD-0411-001). […] LC/MS data analysis was performed using Waters Masslynx V4.1 SCN 846 software. Proton and carbon nuclear magnetic resonance (1H and 13C NMR spectra) were recorded on a Bruker Avance III 400 spectrometer using Topspin 3.2 software and data were analyzed using MestreNova (version 12.0.1-20560, Mestrelab Research). Chemical shifts for protons are reported in parts per million (ppm) and are referenced to residual solvent peaks. Data is reported as follows: chemical shift, multiplicity (s=singlet, br s, =broad singlet, d=doublet, t=triplet, q=quartet, p=pentet, m=multiplet), proton coupling constants (J, Hz), and integration. […]

SJGBM2 = assay: Cell viability, pediatric glioma SJGBM2; assay type: cell-based
MES83 [1] = assay: Cell viability, adult glioma MES83; assay type: cell-based
CT2A (mice) = assay: Cell viability, adult glioma CT2A (mice); assay type: cell-based
XFM (mice) = assay: Cell viability, pediatric glioma XFM (mice); assay type: cell-based; conditions: Mus musculus
MES236 = assay: Cell viability, adult glioma MES236; assay type: cell-based
PN84 = assay: Cell viability, adult glioma PN84; assay type: cell-based
DIPG XIII [2] = assay: Cell viability, pediatric glioma DIPG XIII; assay type: cell-based
PHC (mice) = assay: Cell viability, pediatric glioma PHC (mice); assay type: cell-based; conditions: Mus musculus
Keap1 BTB domain = Keap1 BTB domain (Homo sapiens, UniProt Q14145); assay: TR-FRET ligand displacement assay with full-length Keap1, BTB domain (CDDO-based tracer); assay type: binding
Experimental: as §1
as §2, with “Research).” for “Research). Chemical shifts for protons are reported in parts per million (ppm) and are referenced to residual solvent peaks. Data is reported as follows: chemical shift, multiplicity (s=singlet, br s, =broad singlet, d=doublet, t=triplet, q=quartet, p=pentet, m=multiplet), proton coupling constants (J, Hz), and integration.”
CS was discovered and validated as a promising new ligand for the redirection of E3 ligase activity. […] Since the binding affinity of CS and CS-JQ1 for BTB was determined in a ligand displacement assay using a CDDO-based tracer, it was reasonable to assume that CDDO-Me would efficiently displace CS-JQ1. […]

DIPG VI = assay: Cell viability, pediatric glioma DIPG VI; assay type: cell-based
MGG23 = assay: Cell viability, adult glioma MGG23; assay type: cell-based
MDA = assay: Cell viability, breast cancer cells MDA; assay type: cell-based
MGG29 = assay: Cell viability, adult glioma MGG29; assay type: cell-based
[3] = cited from earlier work
M005 (mice) = assay: Cell viability, adult glioma M005 (mice); assay type: cell-based; conditions: Mus musculus
PKC (mice) = assay: Cell viability, pediatric glioma PKC (mice); assay type: cell-based; conditions: Mus musculus
BT474 = assay: Cell viability, breast cancer cells BT474; assay type: cell-based
DIPG IV = assay: Cell viability, pediatric glioma DIPG IV; assay type: cell-based
GBM8 = assay: Cell viability, adult glioma GBM8; assay type: cell-based
MGG6 = assay: Cell viability, adult glioma MGG6; assay type: cell-based
DIPG 50 = assay: Cell viability, pediatric glioma DIPG 50; assay type: cell-based
MCF-7 = assay: Cell viability, breast cancer cells MCF-7; assay type: cell-based
DIPG XIII [4] = assay: Cell viability, CS and JQ1 combination, DIPG XIII; assay type: cell-based
BRD4 [5] = biological target: T1, BRD4 (Homo sapiens, UniProt O60885); assay: Rescue of CS-JQ1-induced BRD4 degradation by co-treatment; assay type: cell-based; conditions: CS-JQ1 250 nM; BTZ, MLN7243, MLN4924 1 μM, JQ1 10 μM; MCF7 and MDA-MB-231 cells
MES83 [6] = assay: Cell viability, CS and JQ1 combination, MES83; assay type: cell-based
BRD4 [7] = assay: TR-FRET ligand displacement, target engagement with BRD4; assay type: binding; conditions: recombinant BRD4(BD1), BRD4(BD2), endogenous BRD4 in MCF7 cell extracts
BRD4 [8] = biological target: T1, BRD4; assay: TR-FRET quantification of BRD4 levels after 5 h treatment, MCF7 cells; assay type: cell-based; conditions: BRD4 degradation
Experimental: (§3) Mammalian cell culture: MCF7 cells (ATCC) were propagated in RPMI-1640 medium supplemented with 10% FBS, 1% pen-strep, and 1% L-glutamine at 37° C. and 5% CO2. MDA-MB-231 cells (ATCC) were propagated in DMEM medium supplemented with 10% FBS, and 1% pen-strep at 37° C. and 5% CO2.
(§4) TR-FRET measurements: unless otherwise noted, experiments were performed in white, 384-well microtiter plates (Corning 3572) in 30 μL assay volume. […] The 490/10 and 520/10 emission channels were acquired with a 50% mirror and a dichroic 510 mirror, respectively, using independently optimized detector gain settings unless specified otherwise. The TR-FRET ratio was taken as the 520/490 nm intensity ratio on a per-well basis.
(§5) Next, MCF7 and MDA-MB-231 cells were treated for 5 h with varying concentrations of CS-JQ1, followed by BRD4 quantification. […] Western blot analysis on the same samples yielded results that were again in excellent agreement (FIG. 1F-G).

[9] = tested on: full-length Keap1 and BRD4(BD1) and BRD4(BD2); assay: CS-JQ1-induced ternary complex formation; assay type: binding; conditions: wildtype full-length Keap1, isolated BRD4 (BD1) and BRD4 (BD2)
BRD4 [10] = biological target: T1, BRD4; assay: TR-FRET quantification of BRD4 levels after 5 h treatment, MDA-MB-231 cells; assay type: cell-based; conditions: BRD4 degradation
Experimental: as §3, §4, §5

BRD4 [11] = assay: CDDO blockade of CS-JQ1-induced BRD4 degradation; assay type: cell-based; conditions: MDA and MES83 cells; CDDO 100 nM or 5 μm, celastrol-JQ1 100 nM; CHX 3 μg/ml 1 h, 8 hour treatment

Chain of Keap1 BTB domain (Q14145 whole entry, the tested form may be a part): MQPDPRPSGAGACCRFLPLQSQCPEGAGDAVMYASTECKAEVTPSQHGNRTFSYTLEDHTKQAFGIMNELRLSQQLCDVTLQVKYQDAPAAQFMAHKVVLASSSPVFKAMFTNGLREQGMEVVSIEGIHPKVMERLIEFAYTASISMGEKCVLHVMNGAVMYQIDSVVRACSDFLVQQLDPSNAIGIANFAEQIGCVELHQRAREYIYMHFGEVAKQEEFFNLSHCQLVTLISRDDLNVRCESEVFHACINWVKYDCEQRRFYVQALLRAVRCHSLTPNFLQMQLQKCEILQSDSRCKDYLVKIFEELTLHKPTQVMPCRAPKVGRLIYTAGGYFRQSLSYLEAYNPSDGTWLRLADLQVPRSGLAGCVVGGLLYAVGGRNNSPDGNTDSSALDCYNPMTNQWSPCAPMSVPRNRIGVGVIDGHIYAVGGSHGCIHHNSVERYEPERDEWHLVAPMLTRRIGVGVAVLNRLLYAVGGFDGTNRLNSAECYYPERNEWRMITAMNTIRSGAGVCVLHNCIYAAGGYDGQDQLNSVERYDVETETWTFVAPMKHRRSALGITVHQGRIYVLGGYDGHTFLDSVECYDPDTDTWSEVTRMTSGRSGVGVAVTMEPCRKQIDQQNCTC
Chain of Keap1 Kelch domain (Q14145 whole entry, the tested form may be a part): as above

SMILES | IC50 (MDA-BR) [nM] | IC50 (U87; Homo sapiens, U-87 MG) [nM] | IC50 (SJGBM2) [nM] | IC50 (MES83 [1]) [nM] | IC50 (XFM (mice)) [nM] | IC50 (MES236) [nM] | IC50 (PN84) [nM] | IC50 (DIPG XIII [2]) | IC50 (PHC (mice)) [nM] | IC50 (DIPG VI) [nM] | IC50 (MGG23) [nM] | IC50 (MDA) [nM] | IC50 (MGG29) [nM] | IC50 (M005 (mice)) [nM] | IC50 (PKC (mice)) [nM] | IC50 (BT474; Homo sapiens, BT-474) [nM] | IC50 (DIPG IV) [nM] | IC50 (GBM8) [nM] | IC50 (MGG6) [nM] | Rescue of CS-JQ1-mediated BRD4 degradation by co-treatment (BRD4 [5]) | other results
CC1=C(O)C(=O)C=C2C1=CC=C1[C@@]2(C)CC[C@@]2(C)[C@@H]3C[C@](C)(C(=O)O)CC[C@]3(C)CC[C@]12C [Celastrol, (9β,13α,14β,20α)-3-hydroxy-9,13-dimethyl-2-oxo-24,25,26-Trinoroleana-1(10),3,5,7-tetraen-29-oic acid] | 1710 | 913 | 1190 | 1160 | 276 | 1270 | 381 | 1910 nM and 1800 nM | 310 | 1360 | 1810 | 1200 | 1100 | 874 | 170 | 511 | 2960 | 715 | 1230 |  | Binding to Keap1 Kelch domain (Keap1 Kelch domain): low micromolar affinity; IC50 (CT2A (mice); Mus musculus): 605 nM; Affinity for Keap1 BTB domain (Keap1 BTB domain): low micromolar affinity; pKa [3]: about 4.8; IC50 (DIPG 50): 1600 nM; IC50 (MCF-7; Homo sapiens, MCF7): 3320 nM
Cc1sc2c(c1C)C(c1ccc(Cl)cc1)=NC(CC(=O)OC(C)(C)C)c1nnc(C)n1-2 (stereo not shown) [JQ-1] | > 10000 | 6950 | 1580 | 8120 | > 10000 | 3680 | 604 | > 10000 nM | 900 | > 10000 | > 10000 | 6490 | > 10000 | 751 | 786 | > 10000 | 1520 |  |  | reduced CS-JQ1 degradation efficiency | IC50 (DIPG XIII [4]): > 10000 nM; IC50 (MES83 [6]): 6380 nM; IC50 (DIPG 50): > 10000 nM
CC1=C(O)C(=O)C=C2C1=CC=C1[C@@]2(C)CC[C@@]2(C)[C@@H]3C[C@](C)(C(=O)NCCCOCCOCCOCCCNC(=O)CC4N=C(c5ccc(Cl)cc5)c5c(sc(C)c5C)-n5c(C)nnc54)CC[C@]3(C)CC[C@]12C (stereo partly drawn) [CS-JQ1, (2R,4aS,6aS,12bR,14aS,14bR)—N-(1-(4-(4-chlorophenyl)-2,3,9-trimethyl-6H-thieno[3,2-f][1,2,4]triazolo[4,3-a][1,4]diazepin-6-yl)-2-oxo-7,10,13-trioxa-3-azahexadecan-16-yl)-10-hydroxy-2,4a,6a,9,12b,14a-hexamethyl-11-oxo-1,2,3,4,4a,5,6,6a,11,12b,13,14,14a,14b-tetradecahydropicene-2-carboxamide] | 213 | 266 | 263 | 328 | 38.2 | 190 | 79.7 | 39 nM | 8.48 | 83.1 | 447 | 119 | 90.4 | 23.6 | 103 | 60.9 | 819 | 63.1 | 99.3 |  | Binding to BRD4 (BRD4 [7]): did not impair binding to BRD4; Binding to Keap1 Kelch domain (Keap1 Kelch domain): lost the ability to bind the Keap1 Kelch domain; IC50 (CT2A (mice); Mus musculus): 142 nM; Emax (BRD4 [8]): 21%; Emax,5h,MCF7 (BRD4 [8]): 21%; DC50 (BRD4 [8]; n=2): 0.029 ± 0.014 µM; Ternary complex formation between Keap1 and BRD4 domains [9]: able to induce ternary complex formation; IC50 (PN84; listed as Celastrol-JQ1): 125 nM; IC50 (DIPG XIII [2]; listed as Celastrol-JQ1): 46.5 nM; Affinity for Keap1 BTB domain (Keap1 BTB domain): slightly improved affinity for the BTB domain; Emax (BRD4 [10]): 12%; Emax,5h,MDA-MB-231 (BRD4 [10]): 12%; DC50 (BRD4 [10]; n=2): 0.016 ± 0.002 µM; IC50 (DIPG 50): 298 nM; IC50 (MCF-7; Homo sapiens, MCF7): 409 nM
NS(=O)(=O)OC[C@@H]1C[C@@H](n2ccc3c(N[C@H]4CCc5ccccc54)ncnc32)C[C@@H]1O [MLN4924] |  |  |  |  |  |  |  |  |  |  |  |  |  |  |  |  |  |  |  | substantially rescued | 
NS(=O)(=O)OC[C@H]1C[C@@H](Nc2ccnc3cc(-c4cccc(SC(F)(F)F)c4)nn23)[C@H](O)[C@@H]1O [MLN7243] |  |  |  |  |  |  |  |  |  |  |  |  |  |  |  |  |  |  |  | substantially rescued | 
CC(C)C[C@H](NC(=O)[C@H](Cc1ccccc1)NC(=O)c1cnccn1)B(O)O [BTZ] |  |  |  |  |  |  |  |  |  |  |  |  |  |  |  |  |  |  |  | substantially rescued | 
CC1(C)CC[C@]2(C(=O)O)CC[C@]3(C)[C@H](C(=O)C=C4[C@@]5(C)C=C(C#N)C(=O)C(C)(C)[C@@H]5CC[C@]43C)[C@@H]2C1 [CDDO] | > 10000 |  | 2370 | 1350 |  | 1280 | 278 | 1410 nM |  | 1330 | 2570 | 1220 | 828 |  |  |  | 1360 | 578 | 964 |  | IC50 (U87): 3700 nM; IC50 (CT2A (mice)): 2120 nM; Blockade of CS-JQ1-induced BRD4 degradation by CDDO pre-treatment (BRD4 [11]): blocks partially; IC50 (BT474): 4840 nM; IC50 (MCF-7): > 10000 nM
Cc1sc2c(c1C)C(c1ccc(Cl)cc1)=NC(CC(=O)NCCCOCCOCCOCCCNC(=O)[C@]13CCC(C)(C)C[C@H]1[C@H]1C(=O)C=C4[C@@]5(C)C=C(C#N)C(=O)C(C)(C)[C@@H]5CC[C@@]4(C)[C@]1(C)CC3)c1nnc(C)n1-2 (stereo partly shown) [CDDO-JQ1] | > 10000 |  | 635 | 1000 |  | 404 | 139 | 694 nM |  | 277 | 1850 | 748 | 360 |  |  |  | 894 | 124 | 357 |  | IC50 (U87): 746 nM; IC50 (CT2A (mice)): 747 nM; IC50 (BT474): 1680 nM; IC50 (MCF-7): 6600 nM
